Experimental data: the supplement of paper PMC13380429

Experiments:
Details in all cases: 72 h
[1] = test system: Calu-3; assay: cell viability relative to DMSO; higher = less toxic
[2] = test system: Vero E6; assay: as above
[3] = test system: HepG2; assay: as above
[4] = test system: Caco-2; assay: as above
[5] = test system: U2OS; assay: as above
[6] = test system: Calu-3; assay: relative viability EC50 (midpoint between 100% and the lowest measured viability); higher = less toxic
[7] = test system: Vero E6; assay: as above
[8] = test system: HepG2; assay: as above
[9] = test system: Caco-2; assay: as above
[10] = test system: U2OS; assay: as above
[11] = test system: Calu-3; assay: drug sensitivity score (DSS) for viability; higher = more toxic; extreme values may be limits of the assay
[12] = test system: Vero E6; assay: as above
[13] = test system: HepG2; assay: as above
[14] = test system: Caco-2; assay: as above
[15] = test system: U2OS; assay: as above

Row | SMILES | cell viability ([1]; 1 nM) [%] | cell viability ([1]; 10 nM) [%] | cell viability ([1]; 100 nM) [%] | cell viability ([1]; 1000 nM) [%] | cell viability ([1]; 10000 nM) [%] | cell viability ([2]; 1 nM) [%] | cell viability ([2]; 10 nM) [%] | cell viability ([2]; 100 nM) [%] | cell viability ([2]; 1000 nM) [%] | cell viability ([2]; 10000 nM) [%] | cell viability ([3]; 1 nM) [%] | cell viability ([3]; 10 nM) [%] | cell viability ([3]; 100 nM) [%] | cell viability ([3]; 1000 nM) [%] | cell viability ([3]; 10000 nM) [%] | cell viability ([4]; 1 nM) [%] | cell viability ([4]; 10 nM) [%] | cell viability ([4]; 100 nM) [%] | cell viability ([4]; 1000 nM) [%] | cell viability ([4]; 10000 nM) [%] | cell viability ([5]; 1 nM) [%] | cell viability ([5]; 10 nM) [%] | cell viability ([5]; 100 nM) [%] | cell viability ([5]; 1000 nM) [%] | cell viability ([5]; 10000 nM) [%] | relative viability EC50 [6] [µM] | relative viability EC50 [7] [µM] | relative viability EC50 [8] [µM] | relative viability EC50 [9] [µM] | relative viability EC50 [10] [µM] | drug sensitivity score [11] | drug sensitivity score [12] | drug sensitivity score [13] | drug sensitivity score [14] | drug sensitivity score [15]
1 | COc1cc(O)c(C(=O)c2ccccc2)cc1S(=O)(=O)O [sulisobenzone] | 100 | 106 | 98.1 | 109 | 102 | 103 | 99.1 | 95.7 | 95.9 | 89.9 | 93.3 | 101 | 99.8 | 99.3 | 98.3 | 104 | 96.3 | 102 | 91.8 | 103 | 103 | 94.8 | 98.4 | 94.6 | 98.7 | > 10 | > 10 | > 10 | > 10 | > 10 | 0 | 0 | 0 | 0 | 0
2 | Cn1nnc2c(C(N)=O)ncn2c1=O [temozolomide] | 97.6 | 106 | 102 | 94.5 | 98.6 | 99.4 | 97.5 | 95.9 | 98.2 | 102 | 112 | 99.6 | 104 | 93.5 | 114 | 90.3 | 97.3 | 96 | 106 | 99.3 | 98 | 103 | 92.3 | 96.8 | 95 | > 10 | > 10 | > 10 | > 10 | > 10 | 0 | 0 | 0 | 0 | 0
3 | O=C1NCCNC1c1cccs1 (stereo not given) [tenilsetam] | 92.3 | 98.2 | 100 | 97.1 | 99.1 | 97.2 | 103 | 90.1 | 97.7 | 101 | 106 | 106 | 96.4 | 97.2 | 92.3 | 105 | 95.1 | 103 | 97.5 | 97.4 | 103 | 96.3 | 104 | 96.2 | 102 | > 10 | > 10 | > 10 | > 10 | > 10 | 0 | 0 | 0 | 0 | 0
4 | CN(C/C=C/C#CC(C)(C)C)Cc1cccc2ccccc12 [terbinafine] | 103 | 102 | 106 | 92.9 | 114 | 104 | 94.2 | 109 | 94.5 | 95.6 | 99.4 | 91.9 | 101 | 99.6 | 89 | 93 | 81.1 | 90.5 | 112 | 88.5 | 103 | 98.9 | 95.3 | 99.5 | 102 | > 10 | > 10 | > 10 | > 10 | > 10 | 0 | 0 | 0 | 0 | 0
5 | Clc1ccc(C(Cn2ccnc2)OCc2ccsc2Cl)c(Cl)c1 (stereo not given) [tioconazole] | 103 | 92.8 | 102 | 90.8 | 99.5 | 100 | 104 | 99.8 | 97 | 101 | 108 | 100 | 112 | 102 | 90.7 | 106 | 95 | 93.5 | 99 | 81.2 | 100 | 97.2 | 96.9 | 92.9 | 93 | > 10 | > 10 | > 10 | > 10 | > 10 | 0 | 0 | 0 | 0.6 | 0
6 | CC(=O)Nc1cccc(-n2c(=O)n(C3CC3)c(=O)c3c(Nc4ccc(I)cc4F)n(C)c(=O)c(C)c32)c1 [trametinib] | 94.8 | 73.6 | 62 | 33.8 | 24.8 | 101 | 94.2 | 67.9 | 15.7 | 15.8 | 99.3 | 45.5 | 30.5 | 25.3 | 23.2 | 80.4 | 65.4 | 40.6 | 21.3 | 16 | 99.3 | 91.9 | 89.7 | 60.8 | 29.3 | 0.0536 | 0.129 | 0.0064 | 0.0156 | 0.695 | 19 | 19.2 | 30.5 | 26.5 | 9
7 | CC(/C=C/C(=O)NO)=C\[C@@H](C)C(=O)c1ccc(N(C)C)cc1 [trichostatin-a] | 107 | 103 | 89 | 20.4 | 7.5 | 98.7 | 94.4 | 44 | -0.2 | -0.1 | 101 | 93.1 | 84.2 | 0.4 | 0 | 97.3 | 101 | 37.1 | 2.4 | 3 | 99.7 | 95.4 | 77.3 | 1 | 0.7 | 0.336 | 0.0838 | 0.194 | 0.0788 | 0.162 | 16 | 24.6 | 20.6 | 24.9 | 21.4
8 | CC1Sc2c(C(=O)O)c(=O)c3cc(F)c(N4CCNCC4)cc3n21 (stereo not given) [ulifloxacin] | 116 | 95.3 | 94 | 106 | 102 | 96.5 | 95.9 | 109 | 104 | 90.5 | 112 | 98.9 | 86.5 | 98.2 | 78.9 | 95.8 | 124 | 107 | 108 | 104 | 99.1 | 101 | 98.2 | 97.9 | 83.8 | > 10 | > 10 | > 10 | > 10 | > 10 | 0 | 0 | 0.7 | 0 | 0.5
9 | Oc1nc(O)c2nc(O)[nH]c2n1 [uric-acid] | 96 | 95.3 | 93.5 | 98.4 | 101 | 98 | 104 | 97.9 | 102 | 98.4 | 94.7 | 97.1 | 95.9 | 92.5 | 96 | 96.5 | 98 | 92.6 | 91 | 95.9 | 101 | 107 | 99.6 | 102 | 98.4 | > 10 | > 10 | > 10 | > 10 | > 10 | 0 | 0 | 0 | 0 | 0
10 | C[C@@H]1O[C@@H](O[C@@H]2[C@@H](O)[C@H](OCCc3ccc(O)c(O)c3)O[C@H](CO)[C@H]2OC(=O)/C=C/c2ccc(O)c(O)c2)[C@H](O)[C@H](O)[C@H]1O [verbascoside] | 98.6 | 93.3 | 106 | 105 | 97.1 | 98.9 | 99.8 | 94.4 | 101 | 104 | 95.3 | 102 | 101 | 106 | 104 | 96.4 | 89.7 | 97.8 | 99.8 | 96.9 | 97.9 | 100 | 96.5 | 96.8 | 93.6 | > 10 | > 10 | > 10 | > 10 | > 10 | 0 | 0 | 0 | 0 | 0
11 | CCOc1ccccc1OCC1CNCCO1 (stereo not given) [viloxazine] | 86.6 | 98.2 | 98.6 | 100 | 111 | 96.4 | 89.4 | 94.1 | 92.2 | 102 | 116 | 91.7 | 111 | 94.7 | 96.6 | 111 | 99.5 | 113 | 118 | 95.6 | 94.8 | 98.5 | 102 | 104 | 105 | > 10 | > 10 | > 10 | > 10 | > 10 | 0 | 0 | 0 | 0 | 0
12 | CC[C@]12CCCN3CCc4c(n(c5ccccc45)[C@@](O)(C(=O)OC)C1)[C@@H]32 [vincamine] | 103 | 94.2 | 94.9 | 95.6 | 102 | 103 | 89.9 | 104 | 94 | 97.7 | 99.1 | 73.5 | 118 | 102 | 97.7 | 101 | 105 | 91.6 | 101 | 100 | 95.3 | 99.3 | 96.2 | 99.7 | 97.3 | > 10 | > 10 | > 10 | > 10 | > 10 | 0 | 0 | 0 | 0 | 0
13 | CCCCCCOc1nsnc1C1=CCCN(C)C1 [xanomeline] | 101 | 115 | 100 | 104 | 96.6 | 105 | 104 | 106 | 101 | 95.9 | 102 | 102 | 100 | 99.3 | 79.3 | 109 | 93.8 | 99.1 | 92.3 | 99.1 | 95.3 | 102 | 97.5 | 98.9 | 92.3 | > 10 | > 10 | > 10 | > 10 | > 10 | 0 | 0 | 0.7 | 0 | 0
